Assays:
MVP = target: T1, MVP (Methanosarcina mazei, UniProt Q8PYZ8); assay: colorimetric orthophosphate release; fit of MWC-derived Equation […]; format: biochemical; conditions: read-out: KR
T1 construct: gene hppA1; InvGFPMVP: N-terminal signal peptide of yeast Suc2p + yEGFP + MVP; stripped microsomal membranes of S. cerevisiae YPC6; homodimer

AVP1 = target: T2, AVP1 (Arabidopsis thaliana, UniProt P31414); assay: as above; format: biochemical; conditions: read-out: KR
T2 construct: InvGFPAVP1: N-terminal signal peptide of yeast Suc2p + yEGFP + AVP1; stripped microsomal membranes of S. cerevisiae YPC6; homodimer
T2 sequence (P31414 1-770): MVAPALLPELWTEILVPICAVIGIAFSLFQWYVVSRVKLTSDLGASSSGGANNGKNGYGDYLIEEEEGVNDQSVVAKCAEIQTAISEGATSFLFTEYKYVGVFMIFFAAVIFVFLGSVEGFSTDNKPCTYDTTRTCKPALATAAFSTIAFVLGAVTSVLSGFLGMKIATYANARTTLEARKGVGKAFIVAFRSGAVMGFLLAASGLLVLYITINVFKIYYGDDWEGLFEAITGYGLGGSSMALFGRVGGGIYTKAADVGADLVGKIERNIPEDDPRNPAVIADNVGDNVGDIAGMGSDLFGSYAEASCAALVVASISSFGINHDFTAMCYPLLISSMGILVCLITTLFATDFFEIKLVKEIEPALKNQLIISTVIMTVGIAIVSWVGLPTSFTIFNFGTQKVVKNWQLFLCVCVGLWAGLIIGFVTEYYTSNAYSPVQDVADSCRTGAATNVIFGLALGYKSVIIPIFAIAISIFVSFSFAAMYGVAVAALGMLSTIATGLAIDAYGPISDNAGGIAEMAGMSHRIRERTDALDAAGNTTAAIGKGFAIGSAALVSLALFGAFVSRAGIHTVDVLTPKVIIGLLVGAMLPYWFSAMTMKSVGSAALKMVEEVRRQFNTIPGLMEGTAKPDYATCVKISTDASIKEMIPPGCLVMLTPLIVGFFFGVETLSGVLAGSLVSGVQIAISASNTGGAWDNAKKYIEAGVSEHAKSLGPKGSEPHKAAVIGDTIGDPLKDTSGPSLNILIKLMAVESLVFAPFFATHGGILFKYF

T1 sequence (Q8PYZ8 whole entry): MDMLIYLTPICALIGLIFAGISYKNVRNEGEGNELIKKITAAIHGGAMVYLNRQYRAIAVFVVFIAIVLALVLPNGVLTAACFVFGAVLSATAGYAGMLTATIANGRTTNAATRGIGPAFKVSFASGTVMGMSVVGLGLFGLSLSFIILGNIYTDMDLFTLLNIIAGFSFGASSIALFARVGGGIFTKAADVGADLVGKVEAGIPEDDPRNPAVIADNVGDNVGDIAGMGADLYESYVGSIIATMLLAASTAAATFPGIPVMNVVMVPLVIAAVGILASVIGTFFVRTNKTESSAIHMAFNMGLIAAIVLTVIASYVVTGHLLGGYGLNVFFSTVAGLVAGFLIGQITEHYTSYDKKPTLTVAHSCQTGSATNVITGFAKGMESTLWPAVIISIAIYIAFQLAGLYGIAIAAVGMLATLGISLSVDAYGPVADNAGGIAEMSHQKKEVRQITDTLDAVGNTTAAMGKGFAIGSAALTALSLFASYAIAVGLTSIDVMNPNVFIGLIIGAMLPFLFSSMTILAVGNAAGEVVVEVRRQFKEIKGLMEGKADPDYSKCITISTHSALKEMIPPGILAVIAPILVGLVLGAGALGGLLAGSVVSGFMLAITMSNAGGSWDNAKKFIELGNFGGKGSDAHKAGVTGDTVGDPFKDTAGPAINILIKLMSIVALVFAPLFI

O=P(O)(O)OP(=O)(O)O [Mg2PPi]
Kd (MVP): 62 ± 8 µM | Kd (AVP1): 84 ± 9 µM
